Experimental data from PubChem BioAssay (NCI).
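Following 48 hours of exposure in 96-well plates, responses at five concentrations were used to interpolate endpoints linearly. GI50: concentration for 50% inhibition of growth. The concentration for full growth arrest is given as TGI.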

Key:
Test in all cases: growth of human tumour cells (NCI), 48 h
IGROV1 ovarian = tested on: IGROV1 ovarian
SNB-75 CNS = tested on: SNB-75 CNS
UO-31 renal = tested on: UO-31 renal
K-562 leukemia = tested on: K-562 leukemia
SF-295 CNS = tested on: SF-295 CNS
MDA-MB-231 breast = tested on: MDA-MB-231 breast
HCT-15 colon = tested on: HCT-15 colon
UACC-257 melanoma = tested on: UACC-257 melanoma
NCI-H522 lung = tested on: NCI-H522 lung
786-0 renal = tested on: 786-0 renal
RPMI-8226 leukemia = tested on: RPMI-8226 leukemia
SK-MEL-28 melanoma = tested on: SK-MEL-28 melanoma
HT29 colon = tested on: HT29 colon
HOP-62 NSCLC = tested on: HOP-62 NSCLC
OVCAR-5 ovarian = tested on: OVCAR-5 ovarian
NCI-H460 lung = tested on: NCI-H460 lung
MDA-MB-435 = tested on: MDA-MB-435
HCT-116 colon = tested on: HCT-116 colon
COLO 205 colon = tested on: COLO 205 colon
SNB-19 CNS = tested on: SNB-19 CNS
HL-60(TB) leukemia = tested on: HL-60(TB) leukemia
NCI-H226 lung = tested on: NCI-H226 lung
SK-OV-3 ovarian = tested on: SK-OV-3 ovarian
SF-539 CNS = tested on: SF-539 CNS
ACHN renal = tested on: ACHN renal
BT-549 breast = tested on: BT-549 breast
MALME-3M melanoma = tested on: MALME-3M melanoma
SK-MEL-2 melanoma = tested on: SK-MEL-2 melanoma
SK-MEL-5 melanoma = tested on: SK-MEL-5 melanoma
PC-3 prostate = tested on: PC-3 prostate
A549 NSCLC = tested on: A549 NSCLC
MCF7 breast = tested on: MCF7 breast
SR leukemia = tested on: SR leukemia
HCC-2998 colon = tested on: HCC-2998 colon
SF-268 CNS = tested on: SF-268 CNS
NCI/ADR-RES ovarian = tested on: NCI/ADR-RES ovarian
HS 578T breast = tested on: HS 578T breast
SW-620 colon = tested on: SW-620 colon
M14 melanoma = tested on: M14 melanoma
RXF 393 renal = tested on: RXF 393 renal
OVCAR-4 ovarian = tested on: OVCAR-4 ovarian
TK-10 renal = tested on: TK-10 renal
U251 CNS = tested on: U251 CNS
EKVX NSCLC = tested on: EKVX NSCLC
DU-145 prostate = tested on: DU-145 prostate
UACC-62 melanoma = tested on: UACC-62 melanoma
CAKI-1 renal = tested on: CAKI-1 renal
NCI-H23 lung = tested on: NCI-H23 lung
HOP-92 NSCLC = tested on: HOP-92 NSCLC
OVCAR-8 ovarian = tested on: OVCAR-8 ovarian
T-47D breast = tested on: T-47D breast
A498 renal = tested on: A498 renal
CCRF-CEM leukemia = tested on: CCRF-CEM leukemia
MOLT-4 leukemia = tested on: MOLT-4 leukemia
SN12C renal = tested on: SN12C renal
KM12 colon = tested on: KM12 colon

For O=C(c1ccc(Oc2ccccc2)cc1Cl)c1c[nH]c2ncnc(N[C@@H]3CC[C@@H](CO)OC3)c12, the GI50 (IGROV1 ovarian) was 84.2 nM, the TGI (IGROV1 ovarian) was 1960 nM and the GI50 (SNB-75 CNS) was 1110 nM. The TGI (SNB-75 CNS) was 3270 nM, the GI50 (UO-31 renal) was 479 nM and the TGI (UO-31 renal) was 5560 nM. The GI50 (K-562 leukemia) was 432 nM, the TGI (K-562 leukemia) was greater than 36300 nM and the GI50 (SF-295 CNS) was 2450 nM. The TGI (SF-295 CNS) was 15300 nM, the GI50 (MDA-MB-231 breast) was 320 nM and the TGI (MDA-MB-231 breast) was 1740 nM. The GI50 (HCT-15 colon) was 885 nM, the TGI (HCT-15 colon) was 10800 nM and the GI50 (UACC-257 melanoma) was 38.9 nM. The TGI (UACC-257 melanoma) was 395 nM, the GI50 (NCI-H522 lung) was 437 nM and the TGI (NCI-H522 lung) was 5090 nM. It also gave a GI50 (786-0 renal) of 1580 nM, a TGI (786-0 renal) of 9350 nM and a GI50 (RPMI-8226 leukemia) of 1760 nM. The TGI (RPMI-8226 leukemia) was 9530 nM, the GI50 (SK-MEL-28 melanoma) was 35 nM and the TGI (SK-MEL-28 melanoma) was 465 nM. For the same compound, the GI50 (HT29 colon) was 43.4 nM, the TGI (HT29 colon) was 1470 nM and the GI50 (HOP-62 NSCLC) was 302 nM. It also gave a TGI (HOP-62 NSCLC) of 11000 nM, a GI50 (OVCAR-5 ovarian) of 255 nM and a TGI (OVCAR-5 ovarian) of 2750 nM. The GI50 (NCI-H460 lung) was 2510 nM, the TGI (NCI-H460 lung) was 10700 nM and the GI50 (MDA-MB-435) was 109 nM. It also gave a TGI (MDA-MB-435) of 10800 nM, a GI50 (HCT-116 colon) of 244 nM and a TGI (HCT-116 colon) of 1420 nM. For the same compound, the GI50 (COLO 205 colon) was 31.1 nM, the TGI (COLO 205 colon) was 351 nM and the GI50 (SNB-19 CNS) was 1810 nM. The TGI (SNB-19 CNS) was 15300 nM, the GI50 (HL-60(TB) leukemia) was 200 nM and the TGI (HL-60(TB) leukemia) was 1970 nM. For the same compound, the GI50 (NCI-H226 lung) was 1470 nM, the TGI (NCI-H226 lung) was 23600 nM and the GI50 (SK-OV-3 ovarian) was 351 nM. The TGI (SK-OV-3 ovarian) was 2090 nM, the GI50 (SF-539 CNS) was 1360 nM and the TGI (SF-539 CNS) was 4850 nM. It also gave a GI50 (ACHN renal) of 260 nM, a TGI (ACHN renal) of 10500 nM and a GI50 (BT-549 breast) of 1660 nM. It also gave a TGI (BT-549 breast) of 4170 nM, a GI50 (MALME-3M melanoma) of 16.1 nM and a TGI (MALME-3M melanoma) of 74.5 nM. The GI50 (SK-MEL-2 melanoma) was 229 nM, the TGI (SK-MEL-2 melanoma) was 876 nM and the GI50 (SK-MEL-5 melanoma) was 771 nM. The TGI (SK-MEL-5 melanoma) was 3560 nM, the GI50 (PC-3 prostate) was 3160 nM and the TGI (PC-3 prostate) was 13500 nM. For the same compound, the GI50 (A549 NSCLC) was 724 nM, the TGI (A549 NSCLC) was 9920 nM and the GI50 (MCF7 breast) was 1470 nM. For the same compound, the TGI (MCF7 breast) was 13000 nM, the GI50 (SR leukemia) was 2630 nM and the TGI (SR leukemia) was 19600 nM. It also gave a GI50 (HCC-2998 colon) of 199 nM, a TGI (HCC-2998 colon) of 5560 nM and a GI50 (SF-268 CNS) of 1410 nM. It also gave a TGI (SF-268 CNS) of 16300 nM, a GI50 (NCI/ADR-RES ovarian) of 2300 nM and a TGI (NCI/ADR-RES ovarian) of 10700 nM. The GI50 (HS 578T breast) was 1590 nM, the TGI (HS 578T breast) was 5010 nM and the GI50 (SW-620 colon) was 397 nM. It also gave a TGI (SW-620 colon) of 11600 nM, a GI50 (M14 melanoma) of 21.3 nM and a TGI (M14 melanoma) of 222 nM. It also gave a GI50 (RXF 393 renal) of 748 nM, a TGI (RXF 393 renal) of 2770 nM and a GI50 (OVCAR-4 ovarian) of 5020 nM. For the same compound, the TGI (OVCAR-4 ovarian) was 23000 nM, the GI50 (TK-10 renal) was 231 nM and the TGI (TK-10 renal) was 1670 nM. For the same compound, the GI50 (U251 CNS) was 1200 nM, the TGI (U251 CNS) was 14100 nM and the GI50 (EKVX NSCLC) was 641 nM. It also gave a TGI (EKVX NSCLC) of 9420 nM, a GI50 (DU-145 prostate) of 688 nM and a TGI (DU-145 prostate) of 6960 nM. For the same compound, the GI50 (UACC-62 melanoma) was 20.9 nM, the TGI (UACC-62 melanoma) was 173 nM and the GI50 (CAKI-1 renal) was 398 nM. It also gave a TGI (CAKI-1 renal) of 5360 nM, a GI50 (NCI-H23 lung) of 703 nM and a TGI (NCI-H23 lung) of 13700 nM. For the same compound, the GI50 (HOP-92 NSCLC) was 74.5 nM, the TGI (HOP-92 NSCLC) was 488 nM and the GI50 (OVCAR-8 ovarian) was 1330 nM. The TGI (OVCAR-8 ovarian) was 11200 nM, the GI50 (T-47D breast) was 908 nM and the TGI (T-47D breast) was 6830 nM. It also gave a GI50 (A498 renal) of 295 nM, a TGI (A498 renal) of 1280 nM and a GI50 (CCRF-CEM leukemia) of 3210 nM. The TGI (CCRF-CEM leukemia) was 20900 nM, the GI50 (MOLT-4 leukemia) was 1510 nM and the TGI (MOLT-4 leukemia) was 8990 nM. The GI50 (SN12C renal) was 413 nM, the TGI (SN12C renal) was 11400 nM and the GI50 (KM12 colon) was 37.7 nM. The TGI (KM12 colon) was 2610 nM.
